According to EP1604976A1 (Advance Holdings Limited, priority 2004, dated 2005):
In brackets after ≈: the same amount, converted by molar mass.

Assays:
[1] = stability of product of Formula (I) in aqueous solution / acid medium; type: physicochemical
[2] = water solubility of products of Formula (I)
COX-2 = COX-2 (Homo sapiens, UniProt P35354); conditions: Famaey 1997; Cullen et al. 1998; cited from earlier work
Chain of COX-2 (P35354 18-604): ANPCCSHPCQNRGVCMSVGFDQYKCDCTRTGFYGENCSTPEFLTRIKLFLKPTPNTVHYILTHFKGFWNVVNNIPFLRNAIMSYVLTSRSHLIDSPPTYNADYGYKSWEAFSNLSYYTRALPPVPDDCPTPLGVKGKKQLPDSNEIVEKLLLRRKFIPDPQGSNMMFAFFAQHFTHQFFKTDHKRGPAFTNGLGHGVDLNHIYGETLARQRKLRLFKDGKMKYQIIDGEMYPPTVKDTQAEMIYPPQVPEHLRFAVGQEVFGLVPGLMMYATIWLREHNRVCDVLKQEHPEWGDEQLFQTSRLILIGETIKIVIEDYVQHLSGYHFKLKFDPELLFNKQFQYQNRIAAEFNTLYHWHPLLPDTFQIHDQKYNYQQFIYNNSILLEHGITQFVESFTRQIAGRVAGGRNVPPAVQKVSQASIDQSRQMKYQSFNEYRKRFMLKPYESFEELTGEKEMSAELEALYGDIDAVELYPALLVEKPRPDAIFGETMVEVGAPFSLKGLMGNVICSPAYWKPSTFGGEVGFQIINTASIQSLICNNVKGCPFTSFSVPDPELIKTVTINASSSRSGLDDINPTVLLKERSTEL

SMILES: CS(=O)(=O)N(c1ccc([N+](=O)[O-])cc1Oc1ccccc1)S(=O)(=O)O [Product I in which X is Na]
- effect of acidification of the solution ([1]; acidification to about pH 2 with HCl): decomposition of the product and precipitation of the theoretical quantity of nimesulide
- stability of the aqueous solution ([1]; approximately 3.5 wt.% aqueous solution, room temperature, seventh day): still stable on the seventh day
- solubility [2]: ~35 mg/mL (≈ 90.1 mM)

SMILES: CS(=O)(=O)N(c1ccc([N+](=O)[O-])cc1Oc1ccccc1)S(=O)(=O)O [acid form (X = H)]
- stability of the acid form ([1]; especially in an acid medium): rather unstable

SMILES: CS(=O)(=O)Nc1ccc([N+](=O)[O-])cc1Oc1ccccc1 [nimesulide]
- COX-2 versus COX-1 inhibition preference (COX-2): inhibit preferentially COX-2 more than COX-1
